Experimental data as given in patent publication US20180036259A1, “NO DONORS FOR THE TREATMENT OF IMPAIRED TISSUE PERFUSION” (MIRANDAPHARMACEUTICALS AG, priority 2015, published 2018).
“Also recorded” adds a separate entry of the source.

Assays:
[1] = in vivo; cited from earlier work
[2] = in humans; cited from earlier work
[3] = system: ligated hind limb (unilateral hind limb ischemia); assay: Blood perfusion by laser Doppler imaging in rat unilateral hind limb ischemia model of PAD; format: in vivo, Sprague-Dawley (SD) rats; conditions: SD rats; for blood perfusion in ligated limbs (laser Doppler imaging): hind limb ischemia, CLC-1011 3.6 mg/day by osmotic pump, Cilostazol 100 mg/kg bi-daily orally, over 21 days (FIG. 1)
Protocol: (§1) The animals were held in the Open Animal Facility at the Department of Physiology, University of Zurich and used after a suitable period allowing the animals to adapt to the new environment. A unilateral hind limb ischemia was created in the SD rats by surgical intervention, whereby the right hind limb was ligated and the vessels excised as described in Vasc. Pharmacol., 2009, 51(4):268-74. The animals were then randomly assigned to receive either Cilostazol alone (100 mg/kg/bi-daily orally by gavage), CLC-1011 (3.6 mg/day by mini-osmotic pump, e.g. Model #2004, Alzet Inc.) alone, a combination of Cilostazol (100 mg/kg/bi-daily) and CLC-1011 (3.6 mg/day by mini-osmotic pump), or placebo for a total duration of 2 or 4 weeks.
(§2) During the treatment intervals, animals were scanned using laser Doppler imaging every third day post-operation to estimate the blood perfusion in ligated limbs. Blood flow was measured using a laser Doppler imager (Moor, Axminster, UK) and analyzed with the MoorLDI™ Image Review V51 software. The animals were placed on a heating pad in order to maintain constant body temperature during the entire procedure. At the end of the 2 and 4 weeks interval, animals were sacrificed and muscles were isolated and prepared for histological analysis.

[4] = system: adductor muscle of hypoxic limb; assay: Histological analysis of muscles (new vessels, capillary and arteriole density), rat hind limb ischemia; format: in vivo, Sprague-Dawley (SD) rats; conditions: SD rats; for number of arterioles in isolated muscles (arterioles density/mm^2): at 4 weeks, compared to Cilostazol- and placebo-treated animals (FIG. 5)
Protocol: as §1, §2

[5] = system: arterioles of adductor muscle; assay: Vascular remodelling, histopathological analysis of isolated adductor muscle; format: in vivo; conditions: SD rats, compared to Cilostazol and placebo (FIG. 7)
Protocol: In order to assess possible effects the different treatments have on vascular remodelling, histopathological analysis of isolated adductor muscle was performed and the vascular luminal- and vascular wall-properties were addressed. […] See FIG. 7 showing in the left panel the arteriolar wall area/luminar ratio in the four treatment arms.

[6] = system: platelets; assay: Platelet activation by mean fluorescence intensity in platelets isolated from treatment groups; format: in vivo; conditions: platelets from treated rats; resting state (FIG. 8)
Protocol: Platelet activation was determined using mean fluorescence measurements.

[7] = system: stromal cell-derived factor 1 (SDF-1); assay: Circulating SDF-1 levels in serum by ELISA; format: in vivo; conditions: rats; serum at day 6 post-ischemia; ELISA (FIG. 9)
Protocol: The stromal cell-derived factor 1 (SDF-1) is a circulating proangiogenic cytokine, which plays an important role in angiogenesis. Serum of rats from 4 treatment arms was collected at day 6 post-ischemia. SDF-1 levels were determined by ELISA using methods known in the art.

[8] = system: ischemic hind limb; assay: Blood flow by laser Doppler imaging in diabetic mice with hind limb ischemia; format: in vivo, diabetic mouse (Bks.Cg+Lepr<db>/+Lepr<db>/OlaHsd); conditions: for blood perfusion (laser Doppler imaging): diabetic mice with hind limb ischemia (FIG. 10a)
Protocol: Blood flow was measured by laser Doppler imaging in diabetic mice with hind limb ischemic after treatment with CLC-1011 alone or in a combination with Cilostazol.

[9] = system: adductor muscles; assay: Immunohistochemical analysis of adductor muscles (capillary density), diabetic mice; format: in vivo, diabetic mouse (Bks.Cg+Lepr<db>/+Lepr<db>/OlaHsd); conditions: normalized by number of myocytes (FIG. 11a, 11b)
[10] = system: arterioles of adductor muscle; assay: Arterioles density by alpha-SMA immunohistology, diabetic mice; format: in vivo, diabetic mouse (Bks.Cg+Lepr<db>/+Lepr<db>/OlaHsd); conditions: alpha-SMA immunohistology (FIG. 12)
Protocol: Immunohistology for the alpha-smooth muscle (α-SMA) antigen was employed to highlight the vascular structures within the muscles and allow accurate counting of arterioles. Briefly, sections were deparaffinised in xylene (2×5 min) and rehydrated in decreasing concentrations of ethanol (2×3 min washes in 100% ethanol, followed by 1×3 min wash in 96% ethanol). Sections were washed twice with Tris-buffered saline (TBS, 0.1 M Tris- HCl with 0.9% NaCl, pH 7.4) and incubated for 1 h at room temperature (RT) with the primary antisera (M0851, Dako, Baar, Switzerland), without pretreatment. A detection kit containing the secondary antibody and diaminobenzidine tetrahydrochloride (DAB) as chromogen was subsequently applied according to the manufacturer's protocols
(Peroxidase/DAB plus Mouse Kit; DAKO). Sections were then washed 3 times in TBS and once in distilled water and counterstained for 1 min with haematoxylin, followed by rinsing for 5 min in tap water and dehydration in ascending alcohols, clearing in xylene, coverslipping and mounting. Arterioles density was quantified in histological sections of the adductor muscle. Results were expressed as number of arterioles/mm^2 of tissue.

[11] = system: arterioles; assay: Arteriolar remodeling response to ischemia (wall and luminal area), diabetic mice; format: in vivo, diabetic mouse (Bks.Cg+Lepr<db>/+Lepr<db>/OlaHsd); conditions: arterioles (FIG. 13)
Protocol: These findings corroborate with the remodeling effect of CLC-1011 seen at the vascular wall. To check the arteriolar remodeling response to the ischemia, immunohistochemistry was performed as described above. The remodeling consists in the wall area per luminal area ratio. The measurement of wall and luminal areas and diameter calculation of arterioles was performed in an equal random area for each histological sample. The results shown in FIG. 13a; FIG. 13b and FIG. 13c indicate that the luminal area of the vessels increased in the CLC-1011-treated animals, but not in the Cilostazol- or the placebo-treated animals. Of note, the results indicated no change in the wall area size in either of the groups.

[12] = system: endothelial progenitor cells; assay: Mobilization of putative stem cells into peripheral blood by flow cytometry, diabetic mice; format: in vivo, diabetic mouse (Bks.Cg+Lepr<db>/+Lepr<db>/OlaHsd)
Protocol: Mobilization of putative stern cells from bone marrow into the peripheral blood in the placebo and treated groups mice 7 days after surgery was assessed by flow cytometry in whole blood. The cells were identified using a combination of antibodies that binds to the specific cell surface markers typical for potential angiogenic stem cells.

[13] = whole blood flow cytometry, 7 days after surgery (FIG. 14)

| Compound | half-live [1] | nitrate tolerance [2] | blood perfusion in ligated limbs (laser Doppler imaging) [3] | time up to which the increase in blood perfusion can be detected ([3]; ligated hind limb normalized to contralateral limb (FIG. 6)) | angiogenesis / capillary density in the adductor muscle ([4]; after 2 and 4 weeks of treatment, 28 days after surgery (FIG. 4)) | number of arterioles in isolated muscles (arterioles density/mm^2) [4] | number of arterioles in isolated muscles (arterioles density/mm^2) ([4]; listed as CL-1011) | formation of new blood vessels in hypoxic limb tissue ([4]; tissue sections (FIG. 3)) | luminal area of the vessels [5] | platelet activation (mean fluorescence intensity) [6] | circulating SDF-1 levels in serum [7] | blood perfusion (laser Doppler imaging) [8] | area under the curve of blood flow ([8]; diabetic mice with hind limb ischemia (FIG. 10b)) | capillary density in adductor muscles [9] | arterioles density in the hind limb [10] | luminal area of the vessels [11] | recruitment of the endothelial progenitor cells ([12]; peripheral blood 7 days after surgery) | number of potential endothelial progenitor cells positive for VEGFR2 [12, 13] | number of potential endothelial progenitor cells positive for stem cell antigen 1 (Sca-1) [12, 13] |
| --- | --- | --- | --- | --- | --- | --- | --- | --- | --- | --- | --- | --- | --- | --- | --- | --- | --- | --- | --- |
| NCCO[N+](=O)[O-] [AEN, 2-aminoethyl nitrate] | approx. 2 hours | does not provoke nitrate tolerance |  |  |  |  |  |  |  |  |  |  |  |  |  |  |  |  |  |
| NCCO[N+](=O)[O-] [CLC-1011, 2-aminoethyl nitrate] |  |  | increase in blood perfusion | up to 3 weeks | significant arteriogenic effects; also recorded: angiogenesis has been stimulated | significant arteriogenic effects | significantly contributes to an increase of the number of arterioles | clear increase in the formation of new blood vessels | significantly increases luminal area | significantly prevents activation of platelets in resting state | induced the release of the circulating SDF-1 | increase in the blood perfusion; also recorded: increased blood perfusion | increase of the area under the curve | increase of the capillary density | increase of the arterioles | increased | enhances the recruitment of the endothelial progenitor cells | increase in the number of potential endothelial progenitor cells | increase in the number of potential endothelial progenitor cells |
| O=C1CCc2cc(OCCCCc3nnnn3C3CCCCC3)ccc2N1 [Cilostazol, reference compound] |  |  | no effect in blood flow |  |  |  |  |  | such effect is absent | no effect in prevention of platelet activation and aggregation |  | remains unchanged |  |  | no change | not |  |  |  |
